Assay results taken from the supplement of paper PMC10307832.

Columns and labels:
Test in all cases: relative viability (nuclei count vs DMSO), 5 days (fraction); higher = more cells survive
[1] = compound: C1CN(CCC1C(C2=CC3=C(C=C2)OCO3)(C4=CC5=C(C=C4)OCO5)O)C(=O)OC6=CC=C(C=C6)[N+](=O)[O-] [JZL-184] + CS(=O)(=O)N1CCN(Cc2cc3nc(-c4cccc5[nH]ncc45)nc(N4CCOCC4)c3s2)CC1 [Pictilisib] (partner 1 µM)
How it was run: (§1)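 Relative viability was taken as the ratio of nuclei in treated wells to nuclei in vehicle wells. Lung cancer cell lines in 1536-well plates received compounds by pin tool one day after seeding, either one drug alone or a fixed anchor-drug dose plus five library-drug doses (not always all listed) in √10 steps. Nuclei were counted on 4× images after 5 days of treatment, and values are medians of duplicate plates.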

[2] = compound: C1CN(CCC1C(C2=CC3=C(C=C2)OCO3)(C4=CC5=C(C=C4)OCO5)O)C(=O)OC6=CC=C(C=C6)[N+](=O)[O-] [JZL-184] + CCNC(=O)c1noc(-c2cc(C(C)C)c(O)cc2O)c1-c1ccc(CN2CCOCC2)cc1 [Luminespib] (partner 0.01 µM)
How it was run: as §1

[3] = compound: C1CN(CCC1C(C2=CC3=C(C=C2)OCO3)(C4=CC5=C(C=C4)OCO5)O)C(=O)OC6=CC=C(C=C6)[N+](=O)[O-] [JZL-184] + C[C@@H](Oc1cc(-c2cnn(C3CCNCC3)c2)cnc1N)c1c(Cl)ccc(F)c1Cl [Crizotinib] (partner 1 µM)
How it was run: as §1

[4] = compound: C1CN(CCC1C(C2=CC3=C(C=C2)OCO3)(C4=CC5=C(C=C4)OCO5)O)C(=O)OC6=CC=C(C=C6)[N+](=O)[O-] [JZL-184] + C[C@]1(O)C[C@@H](c2nc(-c3ccc4ccc(-c5ccccc5)nc4c3)c3c(N)nccn32)C1 [Linsitinib] (partner 1 µM)
How it was run: as §1

[5] = compound: C1CN(CCC1C(C2=CC3=C(C=C2)OCO3)(C4=CC5=C(C=C4)OCO5)O)C(=O)OC6=CC=C(C=C6)[N+](=O)[O-] [JZL-184] + N=C(N)NC(=N)NCCc1ccccc1 [Phenformin] (partner 250 µM)
How it was run: as §1

Cell Line	relative viability ([1]; first compound 0.04 µM)	relative viability ([1]; first compound 0.4 µM)	relative viability ([1]; first compound 1.265 µM)	relative viability ([1]; first compound 4 µM)	relative viability ([2]; first compound 0.04 µM)	relative viability ([2]; first compound 0.4 µM)	relative viability ([2]; first compound 1.265 µM)	relative viability ([2]; first compound 4 µM)	relative viability ([3]; first compound 0.04 µM)	relative viability ([3]; first compound 0.4 µM)	relative viability ([3]; first compound 1.265 µM)	relative viability ([3]; first compound 4 µM)	relative viability ([4]; first compound 0.04 µM)	relative viability ([4]; first compound 0.4 µM)	relative viability ([4]; first compound 1.265 µM)	relative viability ([4]; first compound 4 µM)	relative viability ([5]; first compound 0.04 µM)	relative viability ([5]; first compound 0.4 µM)	relative viability ([5]; first compound 1.265 µM)	relative viability ([5]; first compound 4 µM)
CAL-12T	0.415	0.263	0.686	0.422	0.478	0.449	0.849	0.395	0.993	0.607	0.621	0.497	1.06	0.775	0.828	0.75	0.751	0.26	0.626	0.539
NCI-H2085	0.459	0.401	0.467	0.549	0.327	0.454	0.46	0.443	0.969	0.806	0.808	0.844	0.852	0.862	1.18	0.866	0.433	0.682	0.843	0.737
NCI-H650	1.08	0.857	0.884	0.876	0.854	0.647	0.802	0.806	0.872	0.73	0.814	0.685	0.966	0.62	0.933	0.747	0.44	0.388	0.469	0.422
LCLC-97TM1	0.259	–	0.237	0.201	0.812	0.66	0.828	0.653	0.574	–	0.505	0.271	0.183	–	0.208	0.198	0.396	0.431	0.449	0.435
NCI-H2126	0.498	0.499	0.514	0.5	1.06	0.876	0.922	0.92	1.04	1.02	1.06	1.02	0.644	0.673	0.701	0.693	0.6	0.541	0.538	0.532
201T	0.743	0.67	0.727	0.649	1.05	1.05	1.04	1.03	1.06	1.03	1.01	1.01	1.03	1.01	1.05	1.02	0.451	0.44	0.465	0.45
NCI-H1915	1.05	0.914	1.1	0.918	0.913	0.682	0.8	0.718	0.924	0.821	0.902	0.84	1.14	0.996	1.09	1.02	0.378	0.364	0.377	0.367
BEN	0.661	0.515	0.637	0.54	0.421	0.318	0.67	0.281	1	0.87	1.02	0.861	1.19	0.881	0.995	0.995	0.245	0.235	0.271	0.279
